Measured values as given in patent US20210186954A1, “DRUG PRODUCTS FOR NASAL ADMINISTRATION AND USES THEREOF” (Summit Biosciences Inc., priority 2018, published 2021).
Read-outs that look alike come from different tables or passages of the source.

Columns and labels:
[1] = Dissolution of chlorobutanol in water during preparation of F1(d); format: physicochemical
Procedure: Chlorobutanol dissolves into water very slowly at ambient temperatures. Therefore during the preparation of F1(d), USP-PW was heated. After 18 minutes, the solution was clear and all of the chlorobutanol was completely dissolved.

[2] = tested on: patients with suspected narcotic overdose; details: cited from earlier work
[3] = tested on: patients with suspected opioid overdose; details: cited from earlier work
[4] = tested on: suspected opiate overdose; details: 2 mg IN, cited from earlier work
opiate addicts = details: nasal vs intravenous route; cited from earlier work
[5] = 2 mg nasal solution dose; predicted by Wermeling; cited from earlier work
[6] = tested on: suspected opiate overdose; details: cited from earlier work
overdose events = details: 399 overdose events where naloxone was used; cited from earlier work
heroin overdose = details: IM naloxone; cited from earlier work

CC(C)(O)C(Cl)(Cl)Cl [Chlorobutanol, 1,1,1-trichloro-2-methylpropan-2-ol]
Dissolution into water ([1]; ambient temperatures): very slowly | Time until solution clear and chlorobutanol completely dissolved ([1]; heated USP-PW, preparation of F1(d)): 18 min

C=CCN1CC[C@]23c4c5ccc(O)c4O[C@H]2C(=O)CC[C@@]3(O)[C@H]1C5 [naloxone, 17-allyl-4,5a-epoxy-3,14-dihydroxymorphinan-6-one]
clinical response ([2]; IN group): 66% | clinical response ([2]; IV group): 56% | mean interval from EMS arrival to respiratory rate ≥10 breaths/min ([3]; naloxone 0.4 mg IV): 9.3 ± 4.2 min | mean interval from EMS arrival to respiratory rate ≥10 breaths/min ([3]; naloxone 0.8 mg SQ): 9.6 ± 4.58 min | responders responding to IN naloxone alone ([4]; 43 of 52 responders): 83% | median time from administration of IN naloxone to awakening [4]: 3.0 min | effectiveness of nasal administration (opiate addicts): as effective as the intravenous route | Cmax [5]: 3 to 5 ng/mL | tmax [5]: approximately 20 minutes | more than 10 spontaneous respirations per minute within 8 minutes ([6]; 2 mg IM): 82% | more than 10 spontaneous respirations per minute within 8 minutes ([6]; 2 mg IN, mucosal atomizer): 63% | needing rescue naloxone ([6]; IM group): 13% | needing rescue naloxone ([6]; IN group): 26% | overdose events reported reversed (overdose events): 89% | patients given supplementary naloxone (heroin overdose): 4.5%
